According to ChEMBL document CHEMBL1201862, “PubChem BioAssay data set” (2004):
Active and inactive are the calls of the source.

Experiments:
[1] = molecular target: T1, Neuropeptide Y receptor type 2 (Homo sapiens, UniProt P49146); experiment: Fluorescence-based cell-based high-throughput dose response assay for agonists of NPY-Y2. [Related pubchem assays: 1703 (Screening assay (CNGC inhibitors).), 1359 (Screening assay (NPY-Y2 potentiators or agonists).), 1304 (Screening assay (NPY-Y1 potentiators or agonists).), 1710 (Screening assay (NPY-Y2 agonists).), 1791 (Summary AID.)]; format: functional
T1 sequence (P49146 whole entry): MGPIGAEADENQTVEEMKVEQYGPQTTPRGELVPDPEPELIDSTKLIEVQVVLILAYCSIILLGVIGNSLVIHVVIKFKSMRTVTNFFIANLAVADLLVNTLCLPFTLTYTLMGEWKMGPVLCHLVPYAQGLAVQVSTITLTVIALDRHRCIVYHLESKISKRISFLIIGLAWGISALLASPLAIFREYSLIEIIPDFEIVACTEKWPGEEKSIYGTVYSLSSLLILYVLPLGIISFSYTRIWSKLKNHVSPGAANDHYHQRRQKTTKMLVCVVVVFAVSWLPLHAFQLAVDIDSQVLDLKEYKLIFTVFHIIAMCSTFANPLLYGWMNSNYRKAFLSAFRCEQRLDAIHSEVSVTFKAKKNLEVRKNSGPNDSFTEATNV

[2] = molecular target: T2, Neuropeptide Y receptor type 1 (Homo sapiens, UniProt P25929); experiment: Fluorescence-based counterscreen for agonists of NPY-Y2: cell-based high-throughput dose response assay for agonists of NPY-Y1.; format: functional
T2 sequence (P25929 whole entry): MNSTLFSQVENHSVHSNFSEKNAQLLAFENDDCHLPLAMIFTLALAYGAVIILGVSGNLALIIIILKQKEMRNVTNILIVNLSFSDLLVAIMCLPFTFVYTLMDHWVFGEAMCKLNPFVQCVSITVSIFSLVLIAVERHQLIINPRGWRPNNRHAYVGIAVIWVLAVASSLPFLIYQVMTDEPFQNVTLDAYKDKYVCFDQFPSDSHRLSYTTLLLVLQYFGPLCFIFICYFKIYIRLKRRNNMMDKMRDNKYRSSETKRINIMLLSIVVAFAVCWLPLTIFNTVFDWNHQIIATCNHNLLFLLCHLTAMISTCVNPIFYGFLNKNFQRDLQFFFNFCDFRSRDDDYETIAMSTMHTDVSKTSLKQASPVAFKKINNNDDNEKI

[3] = system: HEK293; experiment: Fluorescence-based counterscreen for potentiators or agonists of NPY-Y2: cell-based high-throughput dose response assay to identify inhibitors of cyclic nucleotide gated ion channel (CNGC) activity. In this assay, the parental HEK293 cell line transfected with a cyclic-nucleotide gated ion channel (CNGC)-based cAMP sensor is used to measure inhibition of isoproterenol-induced CNGC activity by test compound.; format: functional; details: Homo sapiens;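 note: stimulus is 1 µM isoproterenol at EC100 plus PDE inhibitor Ro 20-1724 at 25 µM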
[4] = molecular target: Serine/threonine-protein phosphatase PP1-alpha catalytic subunit (Homo sapiens, UniProt P62136); experiment: PP1 phosphatase inhibitors, dose response, biochemical, fluorescence (AID 2403);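 note: phosphatase turnover of OMFP into fluorescent 3-O-methylfluorescein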
[5] = molecular target: Photoreceptor-specific nuclear receptor (Homo sapiens, UniProt Q9Y5X4); format: functional, cell-based;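 note: CHO-S cells with Gal4-NCOR and VP16-NR2E3 two-hybrid luciferase reporter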
[6] = inhibitors of intracellular T. cruzi replication, confirmation, NIH3T3 host cells, beta-gal luminescence (AID 2044); format: functional, cell-based;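 note: intracellular parasites grown in NIH/3T3 mouse fibroblasts as host cells; luminescent beta-galactosidase reporter signal from transgenic T. cruzi replicating inside host cells; inhibitors lower the luminescence signal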
[7] = cytotoxicity toward NIH3T3 fibroblasts, dose response, counter-screen, cell-based, ATP luminescence, mouse fibroblasts (AID 2010); format: functional;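 note: cells exposed to compound for about 90 hours before reading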
[8] = system: INS1; experiment: beta cell apoptosis inhibitors, cytokine rescue, dose response, luminescence, retest (AID 449756); format: functional, cell-based; details: Rattus norvegicus;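 note: cell death triggered by IL-1 beta plus TNF-alpha plus IFN-gamma mixture; protective hits raise ATP signal compared with cytokine alone wells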
[9] = molecular target: Nonstructural protein 1 (Influenza A virus, UniProt Q194T2); format: functional, Influenza A virus (A/California/07/2009(H1N1))
[10] = molecular target: Serine/threonine-protein phosphatase (Homo sapiens, UniProt Q9BPW0); experiment: Counterscreen for inhibitors of PP1: fluorescence-based biochemical high throughput dose response assay to identify inhibitors of Protein Phosphatase 5 (PP5). [Related pubchem assays: 2034 (Summary (PP5 inhibitors)), 1987 (PP5 inhibitors in singlate), 2235 (PP1 inhibitors in singlate)]
Chain of Serine/threonine-protein phosphatase (Q9BPW0 whole entry): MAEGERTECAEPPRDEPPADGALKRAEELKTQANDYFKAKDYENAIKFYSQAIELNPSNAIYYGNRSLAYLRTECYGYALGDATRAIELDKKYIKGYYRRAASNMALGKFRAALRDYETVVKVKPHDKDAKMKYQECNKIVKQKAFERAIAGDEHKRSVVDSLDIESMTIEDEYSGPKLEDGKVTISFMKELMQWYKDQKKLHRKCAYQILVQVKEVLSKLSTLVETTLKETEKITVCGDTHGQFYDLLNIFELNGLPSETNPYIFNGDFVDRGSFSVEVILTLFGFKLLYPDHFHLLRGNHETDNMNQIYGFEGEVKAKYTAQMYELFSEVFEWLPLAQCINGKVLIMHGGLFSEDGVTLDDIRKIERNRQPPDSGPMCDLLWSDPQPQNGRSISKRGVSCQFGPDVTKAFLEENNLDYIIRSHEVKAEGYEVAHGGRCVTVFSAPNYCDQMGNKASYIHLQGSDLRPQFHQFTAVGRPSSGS

Chain of Serine/threonine-protein phosphatase PP1-alpha catalytic subunit (P62136 whole entry, the tested form may be a part): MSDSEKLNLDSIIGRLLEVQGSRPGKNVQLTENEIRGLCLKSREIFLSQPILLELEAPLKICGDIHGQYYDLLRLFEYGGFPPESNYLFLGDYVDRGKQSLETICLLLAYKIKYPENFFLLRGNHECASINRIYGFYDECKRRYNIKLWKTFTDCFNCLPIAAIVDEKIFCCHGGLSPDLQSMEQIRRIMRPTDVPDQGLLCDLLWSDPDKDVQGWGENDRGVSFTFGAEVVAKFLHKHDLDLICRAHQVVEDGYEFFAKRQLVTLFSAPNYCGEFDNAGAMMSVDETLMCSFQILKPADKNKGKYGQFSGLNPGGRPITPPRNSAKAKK
Chain of Nonstructural protein 1 (Q194T2 whole entry): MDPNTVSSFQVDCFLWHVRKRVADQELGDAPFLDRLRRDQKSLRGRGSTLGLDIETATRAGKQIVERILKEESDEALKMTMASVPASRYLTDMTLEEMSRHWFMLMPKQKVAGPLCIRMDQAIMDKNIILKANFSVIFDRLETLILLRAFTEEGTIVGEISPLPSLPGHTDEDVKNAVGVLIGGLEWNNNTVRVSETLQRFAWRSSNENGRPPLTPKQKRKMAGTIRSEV
Chain of Photoreceptor-specific nuclear receptor (Q9Y5X4 whole entry, the tested form may be a part): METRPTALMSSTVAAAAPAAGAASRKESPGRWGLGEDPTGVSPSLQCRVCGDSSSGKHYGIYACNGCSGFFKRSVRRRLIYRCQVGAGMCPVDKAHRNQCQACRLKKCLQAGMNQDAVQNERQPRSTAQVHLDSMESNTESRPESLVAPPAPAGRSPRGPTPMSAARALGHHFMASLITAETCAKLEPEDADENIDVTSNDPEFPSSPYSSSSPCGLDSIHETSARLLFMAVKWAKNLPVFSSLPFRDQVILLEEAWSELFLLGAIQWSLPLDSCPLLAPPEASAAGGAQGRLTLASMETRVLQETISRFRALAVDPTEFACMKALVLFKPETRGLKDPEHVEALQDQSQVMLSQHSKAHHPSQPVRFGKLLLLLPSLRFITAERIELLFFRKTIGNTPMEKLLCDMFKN

| Compound | EC50 [1] | EC50 [2] | EC50 [3] | IC50 [4] | IC50 [5] | EC50 [6] | EC50 [7] | AC50 [8] | IC50 [9] | IC50 [10] |
| --- | --- | --- | --- | --- | --- | --- | --- | --- | --- | --- |
| O=C1C2CC=CCC2C(=O)N1c1ccc(NCCc2ccc(O)cc2)c([N+](=O)[O-])c1 (stereo not given) | > 35.4 µM (not active) | 26.5 µM (not active) | 15.3 µM (not active) |  |  |  |  |  |  |  |
| Nc1nc(-c2ccccn2)nc(N)c1Cc1c(F)cccc1Cl |  |  |  | 7.4 µM (active) | 4.08 µM (active) | 1.18 µM (active) | 5.25 µM (active) | 5.84 µM (active) | 6.42 µM (active) | 62.2 µM (not active) |
